Measured values reported in patent publication US20250319105A1, “NEUROACTIVE STEROID FOR THE TREATMENT OF ALZHEIMER'S DISEASE” (SAGE THERAPEUTICS, INC., priority 2021, published 2025).
“Also recorded” adds a separate entry of the source.

Tests used:
[1] = Open-label study: PK sampling, plasma concentrations; assay type: in vivo, human; settings: Day 7 and Day 14; 3 mg once daily oral with a meal
Description: (§1) Additional objectives of the study were to assess the following: • PK profile of Compound 1 following administration of multiple doses as assessed by periodic PK sampling • Change from baseline on tests of executive function. • Change from baseline on tests of learning and memory. • Verbal Recognition Memory • Paired Associates Learning • Pattern Recognition Memory • Spatial Span • Change from baseline on tests of social cognition. • Emotion Recognition Task • Emotion Bias Task • Change from baseline on tests of psychomotor function. • Change from baseline on assessments of neuropsychiatric symptoms: • Change from baseline in performance on the Montreal Cognitive Assessment • Change from baseline in Clinical Global Impressions-Severity scores • Overall scores on Clinical Global Impressions-Improvement scales • Change from baseline in Amsterdam Instrumental Activities of Daily Living • Change from baseline in exploratory peripheral biomarkers • Amyloid PET Scan

[2] = tested on: participants with MCI or mild dementia due to AD; assay: Open-label study: tests of executive functioning (MTT, OTS, SWM, DSST, 2-Back); assay type: in vivo, human
Description: as §1
The tests of Executive Functioning included (1) Multitasking Test (MTT), which assesses how well the subject manages conflicting information; (2) One Touch Stockings of Cambridge (OTS), which assesses how well the subject plans, holds onto, and manipulates information to solve a puzzle; (3) Spatial Working Memory (SWM), which assesses how well the subject develops and uses a strategy to find hidden information; (4) Digit Symbol Substitution Task (DSST), which assesses how efficiently can the subject complete a demanding task (daily measure); and (5) Two-Back Test (NBX), which asks is the symbol the same as that shown two symbols ago.

[3] = tested on: participants with MCI or mild dementia due to AD; assay: Open-label study: tests of attention and psychomotor performance (RTI, PVT); assay type: in vivo, human; settings: 3 mg once daily oral for 14 days
Description: as §1
The tests of Attention and Psychomotor Performance included Reaction Time (RTI), which assesses how fast the subject can respond to a stimulus (weekly measure); Psychomotor Vigilance Task (PVT), which assesses how fast can the subject respond to a stimulus (daily measure).

[4] = tested on: participants with MCI or mild dementia due to AD; assay: Open-label study: safety and tolerability (TEAEs, laboratory, vital signs, ECG); settings: 3 mg once daily oral for 14 days
Description: The Study comprised a 2-week screening period, a 1-week baseline period, a 2-week open-label treatment period, and a 2-week follow-up period. […] During the 1-week pre-treatment baseline period, patients underwent repeated cognitive testing using a comprehensive battery of tests to establish a robust cognitive baseline across multiple domains of cognitive function.
The key inclusion criteria for the subjects were as follows: • Be between the ages of 50 and 80 years, inclusive, at Screening • Meet the following criteria for MCI or mild dementia due to AD at Screening: • A memory complaint reported by the participant or his/her study partner • A CDR score of 0.5 to 1.0 (inclusive) with a memory box score ≥0.5 • Essentially preserved activities of daily living, in the opinion of the investigator. • Brain MRI report, obtained within the 2 years preceding the Baseline Period, that is consistent with the diagnosis of AD-MCI with no clinically significant findings of non-AD pathology that could account for the observed cognitive impairment • Have a score of 15 to 24 (inclusive) on the MoCA at Screening • Have an estimated premorbid IQ≥85 (as assessed by the Test of Premorbid Functioning, performed at Screening
The Primary objective of the study was to assess (1) the incidence of Treatment-Emergent Adverse Event (TEAE).
The secondary objectives of the study were to assess: • the percentage of Participants With Clinically Significant Changes in Vital Sign Measurements, clinical laboratory analytes, electrocardiograms (ECGs), and responses on the Columbia-Suicide Severity Rating Scale (C-SSRS).

[5] = tested on: participants with MCI or mild dementia due to AD; assay: Open-label study: tests of learning and memory (PAL, PRM, VRM, Spatial Span); assay type: in vivo, human
Description: as §1
The tests of Learning and Memory included Paired Associates Learning (PAL), which assesses how well the subject remembers the location of hidden objects; Pattern Recognition Memory (PRM), which assesses how well the subject remembers a pattern; and Verbal Recognition Memory […], which assesses how well the subject stores and retrieves verbal information.

[6] = tested on: participants with MCI or mild dementia due to AD; assay: Open-label study: global cognition, Montreal Cognitive Assessment (MoCA); assay type: in vivo, human; settings: 3 mg once daily oral for 14 days
Description: as §1

[7] = 3 mg once daily oral for 14 days, change from baseline, Clinic/Weekly

C[C@H](CC[C@](C)(O)C(F)(F)F)[C@H]1CC[C@H]2[C@@H]3CC=C4C[C@@](C)(O)CC[C@]4(C)[C@H]3CC[C@]12C [Compound 1]
Plasma concentrations versus predicted range [1]: consistent with the predicted range
2-Back Test, Directional Trend [2, 7]: numerical improvement
Multitasking, Directional Trend [2, 7]: numerical improvement
One Touch Stockings, Directional Trend [2, 7]: numerical improvement
Spatial working Memory, Directional Trend [2, 7]: numerical improvement
Digit Symbol Substitution, Directional Trend ([2]; 3 mg once daily oral for 14 days, change from baseline, Mobile/Daily): numerical improvement
Performance from baseline on all tests of executive functioning ([2]; Day 14, 3 mg once daily oral): improved performance
Changes in attention or psychomotor processing [3]: No changes
Reaction Time, Directional Trend ([3]; change from baseline, Clinic/Weekly): No Change
Psychomotor Vigilance Task, Directional Trend ([3]; change from baseline, Mobile/Daily): No Change
Clinically significant laboratory abnormalities ([4]; 26 enrolled subjects): No clinically significant laboratory abnormalities
Clinically significant vital sign or ECG abnormalities ([4]; 26 enrolled subjects): No clinically significant vital sign or ECG abnormalities
Number of TEAEs ([4]; 26 enrolled subjects): 8
Severe TEAEs, SAEs, or deaths ([4]; 26 enrolled subjects): No severe TEAEs, SAEs, or deaths
TEAEs resulting in study drug discontinuation or withdrawal from the study ([4]; 26 enrolled subjects): No TEAEs resulted in study drug discontinuation or withdrawal from the study
Mild TEAEs, n (%) ([4]; of 8 TEAEs): 4 (50%)
Moderate TEAEs, n (%) ([4]; of 8 TEAEs): 4 (50%)
Number of TEAEs considered related to study treatment ([4]; of 8 TEAEs): 6
Number of subjects who experienced TEAEs ([4]; of the 26 enrolled subjects): 7
Paired Associates Learning, Directional Trend [5, 7]: no change (or slight worsening); also recorded: Mixed
Pattern Recognition Memory, Directional Trend [5, 7]: numerical improvement
Spatial Span, Directional Trend [5, 7]: no change (or slight worsening); also recorded: Mixed
Verbal Recognition Memory, Directional Trend [5, 7]: Improvement
Performance on tests of learning and memory ([5]; Day 14 vs baseline, 3 mg once daily oral): additional signals suggesting improved performance
MoCA (Global), Directional Trend ([6]; change from baseline, Monthly): Improvement
MoCA score, mean CFB (change from baseline) ([6]; CFB at Day 28, n = 20): 2.3
MoCA score, mean ([6]; Day 28, n = 20, baseline mean 20.5): (22.8
Improvement in global cognition, assessed via MoCA ([6]; statistically significant): +2.3 pts
